Results as given in patent US20180155757A1, “IDENTIFICATION OF BACTERIA THAT ARE RESISTANT TO CARBAPENEMS BY MEMBRANE IMPERVIOUSNESS” (BIOMÉRIEUX, priority 2015, published 2018).

How the values were obtained:
Assay in all cases: Etest MIC of indicator carbapenems on MH II agar without/with PMBN
Format in all cases: cell-based
[1] = test system: E. coli 1008077 (VIM-1 producer)
Description: (§1) The determinations of antibiotic MIC were carried out on solid culture media with the Etest® method. To do this, Etest® strips (bioMérieux, France) were used: • Etest® Imipenem IM 32, and • Etest® Ertapenem ETP 32, and also solid culture media, differing from one another by virtue of their non-inhibitory concentrations of PMBN.
(§2) These solid culture media are prepared in Petri dishes (0=145 mm; V=50 ml) on a base of MH II Agar (Becton Dickinson®, United States), more or less supplemented with PMBN. The PMBN concentrations range from 0 up to concentrations equivalent to one fifth of the MIC of PMBN (⅕ MICPMBN).
(§3) Using a swab and the Retro C80™ rota-plater (bioMérieux, France), the culture media were inoculated with the bacteria, originating from an inoculum of 0.5 McFarland, prepared in 0.85% NaCl solution from colonies subcultured the day before on MH II agar.
(§4) The various Etest® strips are then deposited on the surface of the culture media. After 16 to 20 hours of incubation at 35° C., the MICS were read.
(§5) To do this, imipenem and ertapenem were used as indicator carbapenems. Non-inhibitory concentrations of PMBN, equivalent to concentrations of one tenth ( 1/10), one eighth (⅛) and one fifth (⅕) of the MIC of PMBN, were applied.

[2] = test system: K. pneumoniae 1108016 (VIM-1 producer)
Description: as §1, §2, §3, §4, §5

[3] = test system: K. pneumoniae 1104053 (OXA-48 producer)
Description: as §1, §2, §3, §4, §5

[4] = test system: E. coli 0506040 (VIM-1 producer)
Description: as §1, §2, §3, §4, §5

[5] = test system: K. pneumoniae 1108007 (VIM-1 producer)
Description: as §1, §2, §3, §4, §5

[6] = test system: K. pneumoniae 1012335 (OXA-48 producer)
Description: as §1, §2, §3, §4, §5

[7] = test system: E. cloacae 1008073 (VIM-1 producer)
Description: as §1, §2, §3, §4, §5

[8] = test system: E. cloacae 0901026 (KPC-2 producer)
Description: as §1, §2, §3, §4, §5

[9] = test system: K. pneumoniae 0901027 (KPC-3 producer)
Description: as §1, §2, §3, §4, §5

[10] = test system: C. freundii 0403012
Description: as §1, §2, §3, §4, §5

[11] = test system: E. cloacae 1101172 (NDM producer)
Description: as §1, §2, §3, §4, §5

[12] = test system: E. cloacae 1008079 (IMP-1 producer)
Description: as §1, §2, §3, §4, §5

[13] = test system: E. cloacae 1008096 (VIM-1 producer)
Description: as §1, §2, §3, §4, §5

[14] = test system: K. pneumoniae 1108006 (KPC-2 producer)
Description: as §1, §2, §3, §4, §5

[15] = test system: E. coli 1012292 (KPC-2 producer)
Description: as §1, §2, §3, §4, §5

[16] = test system: K. pneumoniae 1108001 (KPC-2 producer)
Description: as §1, §2, §3, §4, §5

[17] = test system: C. freundii 1204047
Description: as §1, §2, §3, §4, §5

[18] = test system: S. marcescens 1008175 (IMP-1 producer)
Description: as §1, §2, §3, §4, §5

[19] = test system: E. cloacae 9304026
Description: as §1, §2, §3, §4, §5

[20] = test system: K. pneumoniae 1108002 (KPC-3 producer)
Description: as §1, §2, §3, §4, §5

## C[C@@H](O)[C@H]1C(=O)N2C(C(=O)O)=C(S[C@@H]3CN[C@H](C(=O)Nc4cccc(C(=O)O)c4)C3)[C@H](C)[C@H]12 [ETP, ertapenem]
[1]; [PMBN] 0
  MIC: 8 µg/mL
[1]; [PMBN] MIC/5
  MIC: 4 µg/mL
[1]; [PMBN] MIC/8
  MIC: 4 µg/mL
[1]; [PMBN] MIC/10
  MIC: 4 µg/mL
[2]; [PMBN] 0
  MIC: 1 µg/mL
[2]; [PMBN] MIC/5
  MIC: 2 µg/mL
[2]; [PMBN] MIC/8
  MIC: 4 µg/mL
[2]; [PMBN] MIC/10
  MIC: 4 µg/mL
[3]; [PMBN] 0
  MIC: 4 µg/mL
[3]; [PMBN] MIC/5
  MIC: 4 µg/mL
[3]; [PMBN] MIC/8
  MIC: 4 µg/mL
[3]; [PMBN] MIC/10
  MIC: 4 µg/mL
[4]; [PMBN] 0
  MIC: 0.25 µg/mL
[4]; [PMBN] MIC/5
  MIC: 0.25 µg/mL
[4]; [PMBN] MIC/8
  MIC: 0.25 µg/mL
[4]; [PMBN] MIC/10
  MIC: 0.25 µg/mL
[5]; [PMBN] 0
  MIC: 8 µg/mL
[5]; [PMBN] MIC/5
  MIC: 8 µg/mL
[5]; [PMBN] MIC/8
  MIC: 16 µg/mL
[5]; [PMBN] MIC/10
  MIC: 16 µg/mL
[6]; [PMBN] 0
  MIC: 2 µg/mL
[6]; [PMBN] MIC/5
  MIC: 4 µg/mL
[6]; [PMBN] MIC/8
  MIC: 4 µg/mL
[6]; [PMBN] MIC/10
  MIC: 4 µg/mL
[7]; [PMBN] 0
  MIC: 2 µg/mL
[7]; [PMBN] MIC/5
  MIC: 1 µg/mL
[7]; [PMBN] MIC/8
  MIC: 1 µg/mL
[7]; [PMBN] MIC/10
  MIC: 1 µg/mL
[8]; [PMBN] 0
  MIC: 16 µg/mL
[8]; [PMBN] MIC/5
  MIC: 8 µg/mL
[8]; [PMBN] MIC/8
  MIC: 32 µg/mL
[8]; [PMBN] MIC/10
  MIC: 32 µg/mL
[9]; [PMBN] 0
  MIC: 16 µg/mL
[9]; [PMBN] MIC/5
  MIC: 64 µg/mL
[9]; [PMBN] MIC/8
  MIC: 64 µg/mL
[9]; [PMBN] MIC/10
  MIC: 64 µg/mL
[10]; [PMBN] 0
  MIC: 8 µg/mL
[10]; [PMBN] MIC/5
  MIC: 4 µg/mL
[10]; [PMBN] MIC/8
  MIC: 4 µg/mL
[10]; [PMBN] MIC/10
  MIC: 8 µg/mL
[11]; [PMBN] 0
  MIC: 4 µg/mL
[11]; [PMBN] MIC/5
  MIC: 4 µg/mL
[11]; [PMBN] MIC/8
  MIC: 8 µg/mL
[11]; [PMBN] MIC/10
  MIC: 8 µg/mL
[12]; [PMBN] 0
  MIC: 4 µg/mL
[12]; [PMBN] MIC/5
  MIC: 8 µg/mL
[12]; [PMBN] MIC/8
  MIC: 8 µg/mL
[12]; [PMBN] MIC/10
  MIC: 8 µg/mL
[13]; [PMBN] 0
  MIC: 4 µg/mL
[13]; [PMBN] MIC/5
  MIC: 4 µg/mL
[13]; [PMBN] MIC/8
  MIC: 4 µg/mL
[13]; [PMBN] MIC/10
  MIC: 4 µg/mL
[14]; [PMBN] 0
  MIC: 64 µg/mL
[14]; [PMBN] MIC/5
  MIC: 256 µg/mL
[14]; [PMBN] MIC/8
  MIC: 256 µg/mL
[14]; [PMBN] MIC/10
  MIC: 256 µg/mL
[15]; [PMBN] 0
  MIC: 8 µg/mL
[15]; [PMBN] MIC/5
  MIC: 2 µg/mL
[15]; [PMBN] MIC/8
  MIC: 4 µg/mL
[15]; [PMBN] MIC/10
  MIC: 4 µg/mL
[16]; [PMBN] 0
  MIC: 16 µg/mL
[16]; [PMBN] MIC/5
  MIC: 8 µg/mL
[16]; [PMBN] MIC/8
  MIC: 8 µg/mL
[16]; [PMBN] MIC/10
  MIC: 16 µg/mL
[17]; [PMBN] 0
  MIC: 32 µg/mL
[17]; [PMBN] MIC/5
  MIC: 4 µg/mL
[17]; [PMBN] MIC/8
  MIC: 8 µg/mL
[17]; [PMBN] MIC/10
  MIC: 8 µg/mL
[18]; [PMBN] 0
  MIC: 256 µg/mL
[18]; [PMBN] MIC/5
  MIC: 256 µg/mL
[18]; [PMBN] MIC/8
  MIC: 256 µg/mL
[18]; [PMBN] MIC/10
  MIC: 256 µg/mL
[19]; [PMBN] 0
  MIC: 16 µg/mL
[19]; [PMBN] MIC/5
  MIC: 8 µg/mL
[19]; [PMBN] MIC/8
  MIC: 8 µg/mL
[19]; [PMBN] MIC/10
  MIC: 4 µg/mL
[20]; [PMBN] 0
  MIC: 16 µg/mL
[20]; [PMBN] MIC/5
  MIC: 64 µg/mL
[20]; [PMBN] MIC/8
  MIC: 64 µg/mL
[20]; [PMBN] MIC/10
  MIC: 64 µg/mL
